Measurements: US20090299044A1 (priority 2006, published 2009)
Bridge positions count the residues as written; N and C are the ends. Peptide text beside a SMILES is read from it.

Columns and labels:
human Kv1.3 (CHO) = target: T1, human Kv1.3 (CHO) (Homo sapiens, UniProt P22001); assay: cell-based
T1 construct: expressed in transfected cells; host or cells: CHO

human Kv1.1 (HEK293) = target: T2, human Kv1.1 (HEK293) (Homo sapiens, UniProt Q09470); assay: cell-based
T2 construct: expressed in transfected cells; host or cells: HEK293
T2 sequence (Q09470 whole entry): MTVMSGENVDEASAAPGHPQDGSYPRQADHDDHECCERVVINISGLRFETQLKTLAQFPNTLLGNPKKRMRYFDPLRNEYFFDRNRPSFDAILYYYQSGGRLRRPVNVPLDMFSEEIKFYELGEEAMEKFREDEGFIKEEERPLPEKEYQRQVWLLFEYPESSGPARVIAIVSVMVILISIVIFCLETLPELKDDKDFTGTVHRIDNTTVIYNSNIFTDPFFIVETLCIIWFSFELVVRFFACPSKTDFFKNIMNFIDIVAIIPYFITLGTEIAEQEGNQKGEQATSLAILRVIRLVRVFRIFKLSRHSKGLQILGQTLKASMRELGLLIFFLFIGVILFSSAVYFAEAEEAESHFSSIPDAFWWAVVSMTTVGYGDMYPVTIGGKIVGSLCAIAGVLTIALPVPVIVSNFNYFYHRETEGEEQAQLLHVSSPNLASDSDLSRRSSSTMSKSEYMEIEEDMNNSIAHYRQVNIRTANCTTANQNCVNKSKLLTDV

T1 sequence (P22001 whole entry): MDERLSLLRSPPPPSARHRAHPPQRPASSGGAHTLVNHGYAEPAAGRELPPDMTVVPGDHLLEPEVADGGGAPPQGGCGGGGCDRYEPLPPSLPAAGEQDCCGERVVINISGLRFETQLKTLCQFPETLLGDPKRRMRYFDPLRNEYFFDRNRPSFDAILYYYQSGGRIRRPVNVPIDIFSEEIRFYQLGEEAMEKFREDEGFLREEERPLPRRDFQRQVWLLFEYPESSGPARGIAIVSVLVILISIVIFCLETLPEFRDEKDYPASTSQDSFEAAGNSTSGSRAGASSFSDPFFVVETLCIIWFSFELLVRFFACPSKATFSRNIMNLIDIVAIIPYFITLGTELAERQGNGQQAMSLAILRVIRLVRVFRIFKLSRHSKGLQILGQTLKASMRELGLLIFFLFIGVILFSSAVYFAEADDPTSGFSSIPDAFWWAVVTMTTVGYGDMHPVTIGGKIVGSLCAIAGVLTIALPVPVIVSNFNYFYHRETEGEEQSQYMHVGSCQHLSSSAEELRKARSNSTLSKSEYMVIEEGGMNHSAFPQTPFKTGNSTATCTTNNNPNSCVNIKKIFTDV

CC[C@H](C)[C@@H]1NC(=O)[C@H](CCCCN)NC(=O)[C@@H](NC(=O)[C@H](CCCCN)NC(=O)[C@@H](NC(=O)[C@H](CC(N)=O)NC(=O)[C@@H](NC(=O)[C@@H](NC(=O)[C@@H](NC(=O)CN)C(C)C)[C@@H](C)CC)[C@@H](C)CC)C(C)C)CSSC[C@@H]2NC(=O)[C@H](CCCCN)NC(=O)CNC(=O)[C@H](Cc3ccccc3)NC(=O)[C@H](CCCNC(=N)N)NC(=O)[C@H](CCSC)NC(=O)CNC(=O)[C@H](C)NC(=O)[C@H](CCCCN)NC(=O)[C@H](CCCCN)NC(=O)[C@@H]3CSSC[C@@H](C(=O)N[C@H](C(=O)N4CCC[C@H]4C(=O)N[C@@H](CCCCN)C(=O)O)[C@@H](C)O)NC(=O)[C@H](Cc4c[nH]cn4)NC(=O)[C@H](CSSC[C@H](NC(=O)[C@H](CCC(N)=O)NC(=O)[C@H](CCCNC(=N)N)NC(=O)[C@H](CO)NC1=O)C(=O)N[C@@H](CC(C)C)C(=O)N[C@@H](CCC(=O)O)C(=O)N1CCC[C@H]1C(=O)N3)NC(=O)[C@H](CCCCN)NC(=O)CNC(=O)[C@H](CC(N)=O)NC(=O)[C@H](CCC(=O)O)NC2=O [M29E] (H-GVIINVKCKISRQCLEPCKKAGMRFGKCENGKCHCTPK-OH; disulfide 8-28, 14-33, 18-35) gave an IC50 (human Kv1.3 (CHO)) of over 3.33 nM and an IC50 (human Kv1.1 (HEK293)) of over 3.33 nM.

CC[C@H](C)[C@H](NC(=O)[C@@H](NC(=O)CN)C(C)C)C(=O)N[C@H](C(=O)N[C@@H](CC(N)=O)C(=O)N[C@H](C(=O)N[C@@H](CCCCN)C(=O)N[C@H]1CSSC[C@@H]2NC(=O)[C@H](CCCCN)NC(=O)CNC(=O)[C@H](Cc3ccccc3)NC(=O)[C@H](CCCNC(=N)N)NC(=O)[C@H](CCSC)NC(=O)CNC(=O)[C@H](C)NC(=O)[C@H](CCCCN)NC(=O)[C@H](CCCCN)NC(=O)[C@@H]3CSSC[C@@H](C(=O)N[C@H](C(=O)N4CCC[C@H]4C(=O)N[C@@H](CCCCN)C(=O)O)[C@@H](C)O)NC(=O)[C@H](Cc4c[nH]cn4)NC(=O)[C@H](CSSC[C@H](NC(=O)[C@H](CCC(N)=O)NC(=O)[C@H](CCCNC(=N)N)NC(=O)[C@H](CO)NC(=O)[C@H](CCCNC(=N)N)NC(=O)[C@H](CCCCN)NC1=O)C(=O)N[C@@H](CC(C)C)C(=O)N[C@@H](CCC(=O)O)C(=O)N1CCC[C@H]1C(=O)N3)NC(=O)[C@H](CCCCN)NC(=O)CNC(=O)[C@H](CC(N)=O)NC(=O)[C@H](CCSC)NC2=O)C(C)C)[C@@H](C)CC [I10R] (H-GVIINVKCKRSRQCLEPCKKAGMRFGKCMNGKCHCTPK-OH; disulfide 8-28, 14-33, 18-35) was tested, and the IC50 (human Kv1.3 (CHO)) was 0.0117 nM and the IC50 (human Kv1.1 (HEK293)) was 0.00173 nM.

Work on CC[C@H](C)[C@@H]1NC(=O)[C@H](CCCCN)NC(=O)[C@@H](NC(=O)[C@H](CCCCN)NC(=O)[C@@H](NC(=O)[C@H](CC(N)=O)NC(=O)[C@@H](NC(=O)[C@@H](NC(=O)[C@@H](NC(=O)CN)C(C)C)[C@@H](C)CC)[C@@H](C)CC)C(C)C)CSSC[C@@H]2NC(=O)[C@H](CCCCN)NC(=O)CNC(=O)[C@H](Cc3ccccc3)NC(=O)[C@H](CCCNC(=N)N)NC(=O)[C@H](CCSC)NC(=O)CNC(=O)[C@H](C)NC(=O)[C@H](CCCCN)NC(=O)[C@H](CCCCN)NC(=O)[C@@H]3CSSC[C@@H](C(=O)N[C@H](C(=O)N4CCC[C@H]4C(=O)N[C@@H](CCCCN)C(=O)O)[C@@H](C)O)NC(=O)[C@H](Cc4c[nH]cn4)NC(=O)[C@H](CSSC[C@H](NC(=O)[C@H](CCC(N)=O)NC(=O)[C@H](CCCNC(=N)N)NC(=O)[C@H](CO)NC1=O)C(=O)N[C@@H](CC(C)C)C(=O)N[C@@H](CCC(=O)O)C(=O)N1CCC[C@H]1C(=O)N3)NC(=O)[C@H](CCCNC(=N)N)NC(=O)CNC(=O)[C@H](CC(N)=O)NC(=O)[C@H](CCSC)NC2=O [K32R] (H-GVIINVKCKISRQCLEPCKKAGMRFGKCMNGRCHCTPK-OH; disulfide 8-28, 14-33, 18-35) yielded an IC50 (human Kv1.3 (CHO)) of 0.0308 nM and an IC50 (human Kv1.1 (HEK293)) of 0.00724 nM.

Compound CC[C@H](C)[C@@H]1NC(=O)[C@H](CCCCN)NC(=O)[C@@H](NC(=O)[C@H](CCCCN)NC(=O)[C@@H](NC(=O)[C@H](CC(N)=O)NC(=O)[C@@H](NC(=O)[C@@H](NC(=O)[C@@H](NC(=O)CN)C(C)C)[C@@H](C)CC)[C@@H](C)CC)C(C)C)CSSC[C@@H]2NC(=O)[C@H](CCCCN)NC(=O)CNC(=O)[C@H](Cc3ccccc3)NC(=O)[C@H](CCCNC(=N)N)NC(=O)[C@H](CCSC)NC(=O)CNC(=O)[C@H](CCCNC(=N)N)NC(=O)[C@H](CCCCN)NC(=O)[C@H](CCCCN)NC(=O)[C@@H]3CSSC[C@@H](C(=O)N[C@H](C(=O)N4CCC[C@H]4C(=O)N[C@@H](CCCCN)C(=O)O)[C@@H](C)O)NC(=O)[C@H](Cc4c[nH]cn4)NC(=O)[C@H](CSSC[C@H](NC(=O)[C@H](CCC(N)=O)NC(=O)[C@H](CCCNC(=N)N)NC(=O)[C@H](CO)NC1=O)C(=O)N[C@@H](CC(C)C)C(=O)N[C@@H](CCC(=O)O)C(=O)N1CCC[C@H]1C(=O)N3)NC(=O)[C@H](CCCCN)NC(=O)CNC(=O)[C@H](CC(N)=O)NC(=O)[C@H](CCSC)NC2=O [A21R] (H-GVIINVKCKISRQCLEPCKKRGMRFGKCMNGKCHCTPK-OH; disulfide 8-28, 14-33, 18-35) has an IC50 (human Kv1.3 (CHO)) of 0.0149 nM and an IC50 (human Kv1.1 (HEK293)) of 0.00261 nM.

For CC[C@H](C)[C@@H]1NC(=O)[C@H](CCCCN)NC(=O)[C@@H](NC(=O)[C@H](CCCCN)NC(=O)[C@@H](NC(=O)[C@H](CC(N)=O)NC(=O)[C@@H](NC(=O)[C@@H](NC(=O)[C@@H](NC(=O)CN)C(C)C)[C@@H](C)CC)[C@@H](C)CC)C(C)C)CSSC[C@@H]2NC(=O)[C@H](CCCCN)NC(=O)CNC(=O)[C@H](Cc3ccccc3)NC(=O)[C@H](CCCNC(=N)N)NC(=O)[C@H](CCSC)NC(=O)CNC(=O)[C@H](C)NC(=O)[C@H](CCCNC(=N)N)NC(=O)[C@H](CCCCN)NC(=O)[C@@H]3CSSC[C@@H](C(=O)N[C@H](C(=O)N4CCC[C@H]4C(=O)N[C@@H](CCCCN)C(=O)O)[C@@H](C)O)NC(=O)[C@H](Cc4c[nH]cn4)NC(=O)[C@H](CSSC[C@H](NC(=O)[C@H](CCC(N)=O)NC(=O)[C@H](CCCNC(=N)N)NC(=O)[C@H](CO)NC1=O)C(=O)N[C@@H](CC(C)C)C(=O)N[C@@H](CCC(=O)O)C(=O)N1CCC[C@H]1C(=O)N3)NC(=O)[C@H](CCCCN)NC(=O)CNC(=O)[C@H](CC(N)=O)NC(=O)[C@H](CCSC)NC2=O [K20R] (H-GVIINVKCKISRQCLEPCKRAGMRFGKCMNGKCHCTPK-OH; disulfide 8-28, 14-33, 18-35), the IC50 (human Kv1.3 (CHO)) was 0.00985 nM and the IC50 (human Kv1.1 (HEK293)) was under 0.00152 nM.

In the case of CC[C@H](C)[C@@H]1NC(=O)[C@H](CCCCN)NC(=O)[C@@H](NC(=O)[C@H](CCCCN)NC(=O)[C@@H](NC(=O)[C@H](CC(N)=O)NC(=O)[C@@H](NC(=O)[C@@H](NC(=O)[C@@H](NC(=O)CN)C(C)C)[C@@H](C)CC)[C@@H](C)CC)C(C)C)CSSC[C@@H]2NC(=O)[C@H](CCCCN)NC(=O)CNC(=O)[C@H](Cc3ccccc3)NC(=O)[C@H](CCCNC(=N)N)NC(=O)[C@H](CCSC)NC(=O)CNC(=O)[C@H](C)NC(=O)[C@H](CCCCN)NC(=O)[C@H](CCCCN)NC(=O)[C@@H]3CSSC[C@@H](C(=O)N[C@H](C(=O)N4CCC[C@H]4C(=O)N[C@@H](CCCCN)C(=O)O)[C@@H](C)O)NC(=O)[C@H](Cc4c[nH]cn4)NC(=O)[C@H](CSSC[C@H](NC(=O)[C@H](CCC(N)=O)NC(=O)[C@H](CCC(=O)O)NC(=O)[C@H](CO)NC1=O)C(=O)N[C@@H](CC(C)C)C(=O)N[C@@H](CCC(=O)O)C(=O)N1CCC[C@H]1C(=O)N3)NC(=O)[C@H](CCCCN)NC(=O)CNC(=O)[C@H](CC(N)=O)NC(=O)[C@H](CCSC)NC2=O [R12E] (H-GVIINVKCKISEQCLEPCKKAGMRFGKCMNGKCHCTPK-OH; disulfide 8-28, 14-33, 18-35), the IC50 (human Kv1.3 (CHO)) is reported as 0.0897 nM and the IC50 (human Kv1.1 (HEK293)) is reported as 0.193 nM.

Work on CC[C@H](C)[C@@H]1NC(=O)[C@H](CCCCN)NC(=O)[C@@H](NC(=O)[C@H](CCCCN)NC(=O)[C@@H](NC(=O)[C@H](CC(N)=O)NC(=O)[C@@H](NC(=O)[C@@H](NC(=O)[C@@H](NC(=O)CN)C(C)C)[C@@H](C)CC)[C@@H](C)CC)C(C)C)CSSC[C@@H]2NC(=O)[C@H](CCCCN)NC(=O)CNC(=O)[C@H](Cc3ccccc3)NC(=O)[C@H](CCCNC(=N)N)NC(=O)[C@H](CCSC)NC(=O)CNC(=O)[C@H](C)NC(=O)[C@H](CCCCN)NC(=O)[C@H](CCCCN)NC(=O)[C@@H]3CSSC[C@@H](C(=O)N[C@H](C(=O)N4CCC[C@H]4C(=O)N[C@@H](CCCCN)C(=O)O)[C@@H](C)O)NC(=O)[C@H](Cc4c[nH]cn4)NC(=O)[C@H](CSSC[C@H](NC(=O)[C@H](CCC(N)=O)NC(=O)[C@H](CCCNC(=N)N)NC(=O)[C@H](C)NC1=O)C(=O)N[C@@H](CC(C)C)C(=O)N[C@@H](CCC(=O)O)C(=O)N1CCC[C@H]1C(=O)N3)NC(=O)[C@H](CCCCN)NC(=O)CNC(=O)[C@H](CC(N)=O)NC(=O)[C@H](CCSC)NC2=O [S11A] (H-GVIINVKCKIARQCLEPCKKAGMRFGKCMNGKCHCTPK-OH; disulfide 8-28, 14-33, 18-35) yielded an IC50 (human Kv1.3 (CHO)) of 0.0408 nM and an IC50 (human Kv1.1 (HEK293)) of 0.113 nM.

CC[C@H](C)[C@@H]1NC(=O)[C@H](CCCCN)NC(=O)[C@@H](NC(=O)[C@H](CCCCN)NC(=O)[C@@H](NC(=O)[C@H](CC(N)=O)NC(=O)[C@@H](NC(=O)[C@@H](NC(=O)[C@@H](NC(=O)CN)C(C)C)[C@@H](C)CC)[C@@H](C)CC)C(C)C)CSSC[C@@H]2NC(=O)[C@H](CCCCN)NC(=O)CNC(=O)[C@H](Cc3ccccc3)NC(=O)[C@H](CCCNC(=N)N)NC(=O)[C@H](CCSC)NC(=O)CNC(=O)[C@H](CCC(=O)O)NC(=O)[C@H](CCCCN)NC(=O)[C@H](CCCCN)NC(=O)[C@@H]3CSSC[C@@H](C(=O)N[C@H](C(=O)N4CCC[C@H]4C(=O)N[C@@H](CCCCN)C(=O)O)[C@@H](C)O)NC(=O)[C@H](Cc4c[nH]cn4)NC(=O)[C@H](CSSC[C@H](NC(=O)[C@H](CCC(N)=O)NC(=O)[C@H](CCCNC(=N)N)NC(=O)[C@H](CO)NC1=O)C(=O)N[C@@H](CC(C)C)C(=O)N[C@@H](CCC(=O)O)C(=O)N1CCC[C@H]1C(=O)N3)NC(=O)[C@H](CCCCN)NC(=O)CNC(=O)[C@H](CC(N)=O)NC(=O)[C@H](CCSC)NC2=O [A21E] (H-GVIINVKCKISRQCLEPCKKEGMRFGKCMNGKCHCTPK-OH; disulfide 8-28, 14-33, 18-35) showed an IC50 (human Kv1.3 (CHO)) of 0.00737 nM and an IC50 (human Kv1.1 (HEK293)) of under 0.00152 nM.
